Assay results reported in patent publication US20070128217A1 (priority 2003, published 2007).

Columns and labels:
[1] = test system: control sera (pooled serum of ten healthy LUMC hospital workers; commercial negative donor pooled serum from the Dutch bloodbank); format: binding, human; set-up: Binding of Control serum LUMC to linear peptides / Binding of Control serum Blood-bank to linear peptides / Binding of Control serum LUMC to looped peptides / Binding of Control Serum Blood-Bank to Looped peptides / Binding of Control serum LUMC to linear peptides of the protein M of SARS-CoV Urbani / Binding of Control serum Blood-bank to linear peptides of the protein M of SARS-CoV Urbani / Binding of Control serum LUMC to looped peptides of the protein M of SARS-CoV Urbani / Binding of Control Serum Blood-Bank to Looped peptides of the protein M of SARS-CoV Urbani: unit not given here
[2] = test system: rabbit serum obtained by immunizing a rabbit with the SARS-CoV strain Frankfurt 1; format: binding; set-up: Binding of a rabbit serum to linear peptides / Binding of a rabbit serum to looped peptides / Rabbit serum linear peptides / Rabbit serum looped peptides / Binding of a rabbit serum to linear peptides of protein N of SARS-CoV Urbani (Rabbit serum linear peptides) / Binding of a rabbit serum to looped/cyclic peptides of protein N of SARS-CoV Urbani (Rabbit serum looped peptides): unit not given here
[3] = test system: recombinant human anti-SARS-CoV antibody 03-018; format: binding; set-up: Binding of antibody 03-018 to linear peptides of the N protein of SARS-CoV Urbani / Binding of antibody 03-018 to looped/cyclic peptides of the N protein of SARS-CoV Urbani: unit not given here
[4] = test system: antibodies in sera from SARS patients (sera 1a, 1b, 2, 6, 37, 62, London, SARS-yellow, SARS-green); format: binding, human; set-up: Binding of serum 6 to linear peptides of protein X1 of SARS-CoV Urbani / Binding of serum 37 to linear peptides of protein X1 of SARS-CoV Urbani / Binding of serum 6 to looped/cyclic peptide (PEPSCAN-ELISA) / Binding of serum 37 to looped/cyclic peptide (PEPSCAN-ELISA) / Binding of serum 37 to looped/cyclic peptides of protein X1 of SARS-CoV Urbani / Binding of serum 6 to linear peptides of protein X2 / Binding of serum 37 to linear peptides of protein X2 / Binding of serum 37 to looped/cyclic peptides of protein X2 of SARS-CoV Urbani / Binding of serum 6 to linear peptides of protein M of SARS-CoV Urbani / Binding of serum 37 to linear peptides of protein M of SARS-CoV Urbani / Binding of serum 6 to looped/cyclic peptides of protein M of SARS-CoV Urbani / Binding of serum 37 to looped/cyclic peptides of protein M of SARS-CoV Urbani / Binding of serum 6 to linear peptides of protein X3 of SARS-CoV Urbani / Binding of serum 37 to linear peptides of protein X3 of SARS-CoV Urbani / Binding of serum 37 to looped/cyclic peptides of protein X3 of SARS-CoV Urbani / Binding of serum 6 to linear peptides of protein X4 of SARS-CoV Urbani / Binding of serum 37 to linear peptides of protein X4 of SARS-CoV Urbani / Binding of serum 37 to looped/cyclic peptides of protein X4 of SARS-CoV Urbani / Binding of serum 6 to linear peptides of protein X5 of SARS-CoV Urbani / Binding of serum 37 to linear peptides of protein X5 of SARS-CoV Urbani / Binding of serum 37 to looped/cyclic peptides of protein X5 of SARS-CoV Urbani / Binding of serum 6 to linear peptides of protein N of SARS-CoV Urbani / Binding of serum 37 to linear peptides of protein N of SARS-CoV Urbani / Binding of serum 6 to linear peptide (PEPSCAN-ELISA) / Binding of serum 1a to looped/cyclic peptides of protein N of SARS-CoV Urbani / Binding of serum 1b to looped/cyclic peptides of protein N of SARS-CoV Urbani / Binding of serum 2 to looped/cyclic peptides of protein N of SARS-CoV Urbani / Binding of serum 6 to looped/cyclic peptides of protein N of SARS-CoV Urbani / Binding of serum 37 to looped/cyclic peptides of protein N of SARS-CoV Urbani / Binding of serum 62 to looped/cyclic peptides of protein N of SARS-CoV Urbani / Binding of serum London to looped/cyclic peptides of protein N of SARS-CoV Urbani / Binding of serum SARS-green to looped/cyclic peptides of protein N of SARS-CoV Urbani: unit not given here

Sequence | Binding of Control Serum Blood-Bank to Looped peptides [1] | Binding of Control serum Blood-bank to linear peptides [1] | Binding of Control serum LUMC to linear peptides [1] | Binding of Control serum LUMC to looped peptides [1] | Binding of a rabbit serum to linear peptides of protein N of SARS-CoV Urbani (Rabbit serum linear peptides) [2] | Binding of a rabbit serum to looped/cyclic peptides of protein N of SARS-CoV Urbani (Rabbit serum looped peptides) [2] | Binding of antibody 03-018 to linear peptides of the N protein of SARS-CoV Urbani [3] | Binding of antibody 03-018 to looped/cyclic peptides of the N protein of SARS-CoV Urbani [3] | Recognition of the peptide by the rabbit serum [2] | other results
ASGGGETALALLLLD | 1.3 | 0.8 | 0.9 | 1.3 | 0.1 | 0.4 | 0.1 | 0.2 |  | 
GTTLPKGFYAEGSRG | 0.5 | 0.6 | 0.6 | 0.6 | 0.2 | 0.3 | 0.1 | 0.2 |  | 
KLDDKDPQFKDNVIL |  |  |  |  | 0.1 | 0.2 | 0.1 | 0.2 |  | Control Serum Blood-Bank Looped peptides [1]: 0.7; Control serum Blood-bank linear peptides [1]: 0.8; Control serum LUMC linear peptides [1]: 0.7; Control serum LUMC looped peptides [1]: 0.8
KPRQKRTATKQYNVT | 0.4 | 0.8 | 0.7 | 0.4 | 0.3 | 0.0 | 0.1 | 0.2 |  | 
KRTATKQYNVTQAFG | 0.6 | 0.7 | 0.8 | 0.6 |  |  | 0.1 | 0.2 | recognized | 
LQLPQGTTLPKGFYA | 0.5 | 1.0 | 0.8 | 0.5 | 0.2 | 1.0 | 0.1 | 0.2 |  | 
MASGGGETALALLLL | 0.7 | 0.7 | 0.6 | 0.9 | 0.2 | 1.1 | 0.1 | 0.3 |  | 
NAATVLQLPQGTTLP | 0.6 | 0.7 | 0.5 | 0.4 | 0.2 | 0.0 | 0.1 | 0.2 |  | 
NSTPGSSRGNSPARM |  |  |  |  |  |  | 0.2 | 0.3 | recognized | Binding of serum 1a to linear peptide (PEPSCAN-ELISA) [4]: 0.7; Binding of serum 1a to looped/cyclic peptides of protein N of SARS-CoV Urbani [4]: 0.8; Binding of serum 1b to linear peptide (PEPSCAN-ELISA) [4]: 0.5; Binding of serum 1b to looped/cyclic peptides of protein N of SARS-CoV Urbani [4]: 0.7; Binding of serum 2 to linear peptide (PEPSCAN-ELISA) [4]: 0.4; Binding of serum 2 to looped/cyclic peptides of protein N of SARS-CoV Urbani [4]: 0.6; Binding of serum 6 to linear peptide (PEPSCAN-ELISA) [4]: 0.6; Binding of serum 6 to looped/cyclic peptides of protein N of SARS-CoV Urbani [4]: 0.4; Binding of serum 37 to linear peptide (PEPSCAN-ELISA) [4]: 1.2; Binding of serum 37 to looped/cyclic peptides of protein N of SARS-CoV Urbani [4]: 0.6; Binding of serum 62 to linear peptide (PEPSCAN-ELISA) [4]: 1.2; Binding of serum 62 to looped/cyclic peptides of protein N of SARS-CoV Urbani [4]: 0.6; Binding of serum London to linear peptide (PEPSCAN-ELISA) [4]: 1.6; Binding of serum London to looped/cyclic peptides of protein N of SARS-CoV Urbani [4]: 0.5; Binding of serum SARS-green to linear peptide (PEPSCAN-ELISA) [4]: 1.8; Binding of serum SARS-green to looped/cyclic peptides of protein N of SARS-CoV Urbani [4]: 0.4; Binding of serum SARS-yellow to linear peptide (PEPSCAN-ELISA) [4]: 1.5; Binding of serum SARS-yellow to looped/cyclic peptides of protein N of SARS-CoV Urbani [4]: 0.4
PGSSRGNSPARMASG |  |  |  |  |  |  | 0.1 | 0.3 | recognized | Binding of serum 1a to linear peptide (PEPSCAN-ELISA) [4]: 0.3; Binding of serum 1a to looped/cyclic peptides of protein N of SARS-CoV Urbani [4]: 0.4; Binding of serum 1b to linear peptide (PEPSCAN-ELISA) [4]: 0.2; Binding of serum 1b to looped/cyclic peptides of protein N of SARS-CoV Urbani [4]: 0.2; Binding of serum 2 to linear peptide (PEPSCAN-ELISA) [4]: 0.3; Binding of serum 2 to looped/cyclic peptides of protein N of SARS-CoV Urbani [4]: 0.5; Binding of serum 6 to linear peptide (PEPSCAN-ELISA) [4]: 0.2; Binding of serum 6 to looped/cyclic peptides of protein N of SARS-CoV Urbani [4]: 0.4; Binding of serum 37 to linear peptide (PEPSCAN-ELISA) [4]: 0.6; Binding of serum 37 to looped/cyclic peptides of protein N of SARS-CoV Urbani [4]: 0.6; Binding of serum 62 to linear peptide (PEPSCAN-ELISA) [4]: 0.6; Binding of serum 62 to looped/cyclic peptides of protein N of SARS-CoV Urbani [4]: 0.6; Binding of serum London to linear peptide (PEPSCAN-ELISA) [4]: 0.5; Binding of serum London to looped/cyclic peptides of protein N of SARS-CoV Urbani [4]: 0.5; Binding of serum SARS-green to linear peptide (PEPSCAN-ELISA) [4]: 0.5; Binding of serum SARS-green to looped/cyclic peptides of protein N of SARS-CoV Urbani [4]: 0.5; Binding of serum SARS-yellow to linear peptide (PEPSCAN-ELISA) [4]: 0.7; Binding of serum SARS-yellow to looped/cyclic peptides of protein N of SARS-CoV Urbani [4]: 0.4
TPGSSRGNSPARMAS |  |  |  |  |  |  | 0.1 | 0.3 | recognized | Binding of serum 1a to linear peptide (PEPSCAN-ELISA) [4]: 0.3; Binding of serum 1a to looped/cyclic peptides of protein N of SARS-CoV Urbani [4]: 0.4; Binding of serum 1b to linear peptide (PEPSCAN-ELISA) [4]: 0.2; Binding of serum 1b to looped/cyclic peptides of protein N of SARS-CoV Urbani [4]: 0.2; Binding of serum 2 to linear peptide (PEPSCAN-ELISA) [4]: 0.3; Binding of serum 2 to looped/cyclic peptides of protein N of SARS-CoV Urbani [4]: 0.5; Binding of serum 6 to linear peptide (PEPSCAN-ELISA) [4]: 0.2; Binding of serum 6 to looped/cyclic peptides of protein N of SARS-CoV Urbani [4]: 0.4; Binding of serum 37 to linear peptide (PEPSCAN-ELISA) [4]: 0.8; Binding of serum 37 to looped/cyclic peptides of protein N of SARS-CoV Urbani [4]: 0.6; Binding of serum 62 to linear peptide (PEPSCAN-ELISA) [4]: 0.7; Binding of serum 62 to looped/cyclic peptides of protein N of SARS-CoV Urbani [4]: 0.6; Binding of serum London to linear peptide (PEPSCAN-ELISA) [4]: 0.5; Binding of serum London to looped/cyclic peptides of protein N of SARS-CoV Urbani [4]: 0.5; Binding of serum SARS-green to linear peptide (PEPSCAN-ELISA) [4]: 0.6; Binding of serum SARS-green to looped/cyclic peptides of protein N of SARS-CoV Urbani [4]: 0.4; Binding of serum SARS-yellow to linear peptide (PEPSCAN-ELISA) [4]: 0.8; Binding of serum SARS-yellow to looped/cyclic peptides of protein N of SARS-CoV Urbani [4]: 0.5
